Source: patent US9193729B2, “Inhibiting transient receptor potential ion channel TRPA1” (Cubist Pharmaceuticals, Inc., priority 2011, dated 2015)

Tests used:
healthy male volunteers = assay: Single ascending dose Phase 1A study; type: in vivo, human; conditions: 6 ascending single doses, placebo-controlled
Description: A randomized, double-blind, placebo-controlled, cross-over, single dose, safety, tolerability and pharmacokinetic study of 6 ascending doses of the compound of Formula (Ia) was undertaken in two cohorts of healthy male volunteers. A total of eighteen eligible healthy mail volunteers were recruited utilizing an alternating panel design. The first cohort of nine subjects (Cohort 1) was sequentially enrolled into 3 of 6 dosing periods (Dose Levels 1, 3, and 5). The remaining cohort of nine subjects (Cohort 2) was enrolled in the other 3 dosing periods (Dose Levels 2, 4, and 6). Within each dosing period, subjects were randomly assigned 2:1 to the compound of Formula (I) (n=6) or placebo (n=3). Each subject received one dose of placebo and two different doses of the compound of Formula (I) over the course of their participation in all three dosing periods. Subjects were equally randomized to one of 3 possible sequences, namely 1) placebo, active, active, 2) active, placebo, active, and 3) active, active, placebo.

hTRPC5 = molecular target: T1, hTRPC5 (Homo sapiens, UniProt Q9UL62); assay: Patch clamp selectivity, hTRPC5; type: cell-based; conditions: hTRPC5 vs TRPA1
T1 sequence (Q9UL62 1-973): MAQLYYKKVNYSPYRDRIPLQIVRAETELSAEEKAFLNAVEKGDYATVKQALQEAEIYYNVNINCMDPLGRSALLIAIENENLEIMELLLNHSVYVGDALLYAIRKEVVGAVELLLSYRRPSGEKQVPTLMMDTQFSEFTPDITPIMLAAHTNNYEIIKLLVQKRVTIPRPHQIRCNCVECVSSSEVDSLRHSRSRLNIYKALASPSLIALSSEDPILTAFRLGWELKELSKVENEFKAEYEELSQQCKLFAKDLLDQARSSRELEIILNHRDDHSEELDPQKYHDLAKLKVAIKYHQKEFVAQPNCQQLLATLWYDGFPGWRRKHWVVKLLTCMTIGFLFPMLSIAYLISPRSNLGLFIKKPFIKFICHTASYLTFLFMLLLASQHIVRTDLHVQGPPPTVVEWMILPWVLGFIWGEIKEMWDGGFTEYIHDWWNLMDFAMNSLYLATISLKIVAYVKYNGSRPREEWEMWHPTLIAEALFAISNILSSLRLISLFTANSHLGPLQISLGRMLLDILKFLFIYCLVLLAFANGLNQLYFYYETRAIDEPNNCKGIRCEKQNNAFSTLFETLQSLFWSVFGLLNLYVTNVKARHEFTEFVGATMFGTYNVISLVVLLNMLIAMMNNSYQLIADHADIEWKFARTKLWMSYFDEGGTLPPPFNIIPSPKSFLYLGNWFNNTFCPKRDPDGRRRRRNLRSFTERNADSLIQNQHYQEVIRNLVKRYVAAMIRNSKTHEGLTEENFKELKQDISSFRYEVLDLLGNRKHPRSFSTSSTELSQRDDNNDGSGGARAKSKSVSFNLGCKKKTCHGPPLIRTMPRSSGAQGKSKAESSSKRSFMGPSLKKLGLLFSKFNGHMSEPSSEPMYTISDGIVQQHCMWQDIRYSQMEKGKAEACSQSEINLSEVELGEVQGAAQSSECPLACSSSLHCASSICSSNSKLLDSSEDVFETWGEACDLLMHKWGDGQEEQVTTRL
Experimental: Data for TRPA1 inhibition and the selectivity of TRPA1 inhibition was obtained by this method for the compound of Formula (Ia) and included in Table 1 and Table 2. All currents were recorded in whole-cell configuration using EPC-9 and EPC-10 amplifiers and Patchmaster software (HEKA). […] The standard pipette solution consisted of 140 mM CsAsp, 10 mM EGTA, 10 mM HEPES, 2.27 mM MgCl2, 1.91 mM CaCl2, 4 mM MgATP, and 0.1-0.3 mM Na2GTP, with pH adjusted to 7.2 with CsOH. In addition, a solution containing 145 mM CsCl, 10 mM HEPES, 10 mM EGTA and 1 mM MgCl2 (pH 7.2 adjusted with CsOH) can be used. The standard bath solution contained 150 mM NaCl, 10 mM HEPES, 10 mM glucose, 4.5 mM KCl, 1 mM EGTA, 3 mM MgCl2, with pH adjusted to 7.4 with NaOH. In some instances, 2 mM CaCl2 was added in place of EGTA and the concentration of MgCl2 was reduced to 1 mM.
Data were collected either by continuous recordings at −60 mV or by applying voltage ramps from a holding potential of 0 mV every 4 s. […] Inward and outward currents were analyzed from the ramps at −80 and 80 mV, respectively. […]
Solutions were switched using a gravity-fed continuous focal perfusion system. […] Temperatures were confirmed using a thermistor (Warner Instruments, TA-29), with temperatures at the recorded cell estimated to be within +/−2° C. of those reported. […]

With `C[C@H]1CCCN1c1ncc(-c2cccc(NC(=O)Cn3cnc4c3c(=O)n(C)c(=O)n4C)n2)cn1` [Formula (Ia)] the safety signals (healthy male volunteers) was “no safety signals seen that were attributable to the compound” and the “Fold Selectivity Compared to TRPA1” value (hTRPC5) was >100 Fold.
